Source: patent US7285687B2 (priority 2002, dated 2007)
Read-outs that look alike come from different tables or passages of the source.

Assays:
[1] = target: T1, CB2 receptor (Homo sapiens, UniProt P34972); experiment: CB2 binding procedure, displacement of [3H]CP-55,940 from membranes of transfected CHO cells; conditions: for CB1/CB2: ratio of CB1 Ki to CB2 Ki
T1 construct: expressed in transfected cells
Protocol: Membranes for CB2 binding were obtained from CHO cells. The transfected cell line was maintained in Dublecco's Modified Eagle Medium (Gibco BRL, Grand Island, N.Y.) with 10% fetal clone II (HyClone Laboratories, Inc., Logan, Utah) plus 0.3 to 0.5 mg/ml G418 (to maintain selective pressure) under 5% CO2 at 37% C. Cells were harvested with 1 mM EDTA in phosphate-buffered saline and were centrifuged at 1000×g for 5 min at 4% C. The supernatant was saved and the P1 pellet was resuspended in centrifugation buffer. Homogenization and centrifugation were repeated twice and the combined supernatant fractions were centrifuged at 40,000×g for 30 min at 4% C. The P2 pellet was resuspended in centrifugation buffer 2 (Tris HCl, 50 mM; EDTA, 1 mM; and MgCl2, 3 mM, pH 7.4) to a protein concentration of approximately 2 mg/ml. Protein concentrations were determined by the method of Bradford (1976) using Bio-Rad Protein Assay (Bio-Rad, Richmond, Calif.) and BSA standards (fatty acid free, Sigma Chemical Co., St. Louis, Mo.). The membrane preparation was divided into amounts convenient for binding assays and frozen rapidly in dry ice and stored at −80% C.
Binding was initiated by the addition of 50•g of quickly thawed P2 membranes to test tubes containing [^3H]CP-55,940 (final reaction concentration 0.5 nM), an appropriate concentration of unlabeled CP-55,940 or test drug, and sufficient quantity of assay buffer (50 mM Tris-HCl, 1 mM EDTA, 3 mM MgCl2, 5 mg/ml bovine serum albumin, pH 7.4) to bring the total incubation volume to 0.5 ml. Concentration of [^3H]CP-55,940 in saturation studies ranged from 50 to 10,000 pM. […] CP-55,940 and all cannabinoid analogs were-prepared by suspension in assay buffer from a 1 mg/ml ethanolic stock without evaporation of the ethanol (final concentration of no more than 0.4%). In competition studies, analog concentrations ranged from 0.1 nM to 10•M. After incubation at […] for 1 hr, binding was terminated by the addition of 2 ml of ice-cold wash buffer (50 mM Tris-HCl and 1 mg/ml BSA) and vacuum filtration through pre-treated filters in a 12-well sampling manifold (Millipore, Bedford, Mass.). Reaction vessels were washed once with 2 ml of ice-cold wash buffer. Filters were placed into 7-ml plastic scintillation vials (RPI Corp., Mount Prospect, Ill.) with 4 ml of Budget-Solve (RPI Corp.). After shaking for 30 min, the radioactivity present was determined by liquid scintillation spectrometry. Three reaction vessels were used for each drug concentration in each assay. The results represent the combined data of three independent experiments. All assays were performed in siliconized test tubes, which were prepared by air drying (12 hr) inverted borosilicate tubes after two rinses with a 0.1% solution of AquaSil (Pierce, Rockford, Ill.). The GF/C glass-fiber filters (2.4 cm, Baxter, McGaw Park, Ill.) were pre-treated in a 0.1% solution of pH 7.4 polyethylenimine (Sigma Chemical Co.) for at least 6 hr.
(§1) In addition, multiple linear regression was used to calculate the overall degree of relationship between CB1 binding affinity and potency in the mouse measures for all active cannabinoids. […] Ki values for CB1 and CB2 binding were obtained from Scatchard displacement analysis as determined via EBDA program of the KELL software package (Biosoft, Milltown, N.J.).

[2] = target: T2, CB1 receptor (Rattus norvegicus, UniProt P20272); experiment: CB1 binding procedure, displacement of [3H]CP 55,940 from rat whole-brain P2 membranes
T2 construct: whole brain was homogenized and centrifuged; from tissue; host or cells: whole brain of male Sprague-Dawley rats, P2 membrane fraction
Protocol: (§2) Male ICR mice (25-32 g), obtained from Harlan (Dublin, Va.), were housed in groups of five. All animals were kept in a temperature-controlled (20-22° C.) environment with a 12-hour light-dark cycle (lights on at 7 a.m.). Separate mice were used for testing each drug dose in the in vivo behavioral procedures. Brain tissue for binding studies was obtained from male Sprague-Dawley rats (150-200 g) purchased from Harlan Laboratories (Dublin, Va.).
The methods used for tissue preparation and binding have been described previously (Compton et al., 1993) and are similar to those described by Devane et al. (1988). All assays, as described briefly below, were performed in triplicate, and the results represent the combined data from three to six individual experiments.
Following decapitation and rapid removal of the brain, whole brain was homogenized and centrifuged. The resulting pellet was termed P1. The supernatant was saved and combined with the two subsequent supernatants obtained from washing of the P1 pellet. The combined supernatant fractions were centrifuged, resulting in the P2 pellet. After further incubation and centrifuging, this pellet was resuspended in assay buffer to a protein concentration of approximately 2 mg/ml. The membrane preparation was quickly frozen in a bath solution of dry ice and 2-methylbutane (Sigma Chemical Co., St. Louis, Mo.), then stored at −80° C. for no more than 2 weeks. Prior to performing a binding assay an aliquot of frozen membrane was rapidly thawed and protein values determined by the method of Bradford (1976).
Binding was initiated by the addition of 150•g of P2 membrane to test tubes containing 1 nM of [^3H] CP 55,940 (79 Ci/mmol) and a sufficient quantity of buffer to bring the total incubation volume to 1 ml. […] Following incubation at 30° C. for 1 hr, binding was terminated by addition of ice cold buffer and vacuum filtration through pretreated filters in a 12-well sampling manifold (Millipore, Bedford, Mass.). After washing, filters were placed into plastic scintillation vials (Packard, Downer Grove, Ill.) and shaken. The quantity of radioactivity present was determined by liquid scintillation spectrometry.
as §1

[3] = test system: male ICR mice; experiment: Change in rectal temperature (RT) in mice, i.v.; assay type: in vivo, mouse; conditions: for ED50: Mus musculus, iv
Protocol: as §2
(§3) Measurement of spontaneous activity in mice occurred in standard activity chambers interfaced with a Digiscan Animal Activity Monitor (Omnitech Electronics, Inc., Columbus, Ohio). A standard tail-flick apparatus and a digital thermometer (Fisher Scientific, Pittsburgh, Pa.) were used to measure antinociception and rectal temperature, respectively.
(§4) Resorcinols were synthesized in our labs (Organix, Inc., Woburn, Mass.) according to the procedure specified below and were suspended in a vehicle of absolute ethanol, Emulphor-620 (Rhone-Poulenc, Inc., Princeton, N.J.), and saline in a ratio of 1:1:18. Drugs were administered to the mice intravenously (i.v.) in the tail vein at a volume of 0.1 ml/10 g.
(§5) Prior to testing in the behavioral procedures, mice were acclimated to the experimental setting (ambient temperature 22-24° C.) overnight. Pre-injection control values were determined for rectal temperature and tail-flick latency (in sec). Five min after i.v. injection with drug or vehicle, mice were placed in individual activity chambers and spontaneous activity was measured for 10 min. […] Tail-flick latency was measured at 20 min post-injection. Maximum latency of 10 sec was used. Antinociception was calculated as percent of maximum possible effect {% MPE=[(test−control latency)/(10-control)]×100}. Control latencies typically ranged from 1.5 to 4.0 sec. At 30 min post-injection, rectal temperature was measured. This value was expressed as the difference between control temperature (before injection) and temperatures following drug administration (° C.). Different mice (n=5-6 per dose) were tested for each dose of each compound. Each mouse was tested in each of the 3 procedures.
(§6) Based on data obtained from numerous previous studies with cannabinoids, maximal cannabinoid effects in each procedure were estimated as follows: 90% inhibition of spontaneous activity, 100% MPE in the tail flick procedure, and −6° C. change in rectal temperature. ED50's were defined as the dose at which half maximal effect occurred. For drugs that produced one or more cannabinoid effect, ED50's were calculated separately using least-squares linear regression on the linear part of the dose-effect curve for each measure in the mouse tetrad, plotted against log10 transformation of the dose. For the purposes of potency comparison, potencies were expressed as μmol/kg.

[4] = test system: male ICR mice; experiment: Tail-flick antinociception (TF, % MPE) in mice, i.v.; assay type: in vivo, mouse; conditions: for ED50: Mus musculus, iv; for T.F. % effect at dose: Table 6
Protocol: as §2, §3, §4, §5, §6

[5] = test system: male ICR mice; experiment: Suppression of spontaneous activity (SA) in mice, i.v.; assay type: in vivo, mouse; conditions: for ED50: Mus musculus, iv
Protocol: as §2, §3, §4, §5, §6

[6] = test system: male ICR mice; experiment: Lethality noted in the mouse behavioral procedures, i.v.; assay type: in vivo; conditions: @ 30 mg/kg, Table 6
Protocol: as §2
Resorcinols were synthesized in our labs (Organix, Inc., Woburn, Mass.) according to the procedure specified below and were suspended in a vehicle of absolute ethanol, Emulphor-620 (Rhone-Poulenc, Inc., Princeton, N.J.), and saline in a ratio of 1:1:18. […]
Prior to testing in the behavioral procedures, mice were acclimated to the experimental setting (ambient temperature 22-24° C.) overnight. Pre-injection control values were determined for rectal temperature and tail-flick latency (in sec). Five min after i.v. injection with drug or vehicle, mice were placed in individual activity chambers and spontaneous activity was measured for 10 min. […] Tail-flick latency was measured at 20 min post-injection. […] Antinociception was calculated as percent of maximum possible effect {% MPE=[(test−control latency)/(10-control)]×100}. […] At 30 min post-injection, rectal temperature was measured. […]

[7] = mean ± SEM, [3H]CP-55,940, transfected CHO cell membranes, read-out: Ki(nM) CB2
[8] = mean ± SEM, [3H]CP 55,940, rat brain membranes, read-out: Ki(nM) CB1
[9] = 95% confidence limits in parentheses, read-out: ED50 RT (rectal temperature)
[10] = 95% confidence limits in parentheses, read-out: ED50 TF (antinociception in tail flick assay)
[11] = 95% confidence limits in parentheses, read-out: ED50 SA (suppression of spontaneous activity)

T2 sequence (P20272 whole entry): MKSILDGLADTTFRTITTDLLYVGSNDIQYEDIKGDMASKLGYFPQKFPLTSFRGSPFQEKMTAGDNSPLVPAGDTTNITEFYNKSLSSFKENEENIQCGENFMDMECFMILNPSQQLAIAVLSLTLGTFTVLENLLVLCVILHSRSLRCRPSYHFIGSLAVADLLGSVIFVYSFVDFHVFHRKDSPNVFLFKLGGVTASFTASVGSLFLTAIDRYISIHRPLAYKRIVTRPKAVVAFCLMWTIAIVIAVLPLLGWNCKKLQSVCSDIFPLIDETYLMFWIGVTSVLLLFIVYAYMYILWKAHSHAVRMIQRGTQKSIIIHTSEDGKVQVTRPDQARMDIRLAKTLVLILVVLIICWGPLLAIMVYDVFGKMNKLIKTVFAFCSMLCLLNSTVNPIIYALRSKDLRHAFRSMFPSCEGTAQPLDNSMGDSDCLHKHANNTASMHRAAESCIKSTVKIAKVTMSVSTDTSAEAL
T1 sequence (P34972 whole entry): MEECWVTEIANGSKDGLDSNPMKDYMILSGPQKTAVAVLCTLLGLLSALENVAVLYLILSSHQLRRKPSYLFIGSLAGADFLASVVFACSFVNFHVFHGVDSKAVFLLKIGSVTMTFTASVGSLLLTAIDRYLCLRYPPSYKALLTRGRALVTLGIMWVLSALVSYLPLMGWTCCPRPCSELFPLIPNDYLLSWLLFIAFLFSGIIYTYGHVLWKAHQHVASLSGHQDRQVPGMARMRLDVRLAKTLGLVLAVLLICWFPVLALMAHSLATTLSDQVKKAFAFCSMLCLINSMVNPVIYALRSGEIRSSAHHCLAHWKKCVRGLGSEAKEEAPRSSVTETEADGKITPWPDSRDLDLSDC

Structure (SMILES): CCCCCCC(C)(C)c1cc(O)c(C2CCCCCC2)c(O)c1 [O-1656, 2-Cycloheptyl-5-(1′,1′-dimethyl-heptyl)-resorcinol]
- Ki ([1]; Table 6, read-out: CB2 KI): 2.12 ± 0.25 nM
- Ki [1, 7]: 2 ± 0.2 nM
- CB1/CB2 [1]: 9
- Ki ([2]; Table 6, read-out: CB1 KI): 17.8 ± 1.4 nM
- Ki [2, 8]: 18 ± 1 nM
- ED50 [3, 9]: 0.6 µmol/kg
- ED50 ([3]; Table 6, read-out: R.T. ED50): 0.21 mg/kg
- ED50 [4, 10]: 1.2 µmol/kg
- ED50 ([4]; Table 6, read-out: T.F. ED50): 0.39 mg/kg
- ED50 [5, 11]: 1.5 µmol/kg
- ED50 ([5]; Table 6, read-out: S.A. ED50): 0.53 mg/kg

Structure (SMILES): CCCCCCC(C)(C)c1cc(O)c(C2CCSC2)c(O)c1 (stereo not shown) [O-1661, 2-(Tetrahydrothiophen-3-yl)-5-(1′,1′-dimethylheptyl)-resorcinol]
- CB1/CB2 [1]: 5
- ED50 ([5]; Table 6, read-out: S.A. ED50): 7.65 mg/kg

Structure (SMILES): CCCCCCC(C)(C)c1cc(O)c(C2CCN(C)CC2)c(O)c1 [O-1662, 2-(1-Methylpiperidin-4-yl)-5-(1′,1′-dimethylheptyl)-resorcinol]
- Lethality at dose [6]: Lethal
- R.T. effect at dose ([3]; @ 10 mg/kg, Table 6): 1 °C
- T.F. % effect at dose ([4]; @ 10 mg/kg): 7 @ 10%
- S.A. % effect at dose (stim) ([5]; stimulation, @ 10 mg/kg, Table 6): 77% stim@ 10

Structure (SMILES): CCCCCCC(C)(C)c1cc(O)c(C2CCCC(C)(C)C2)c(O)c1 (stereo not shown) [O-1871]
- Ki ([1]; Table 6, read-out: CB2 KI): 0.3 ± 0.01 nM
- Ki [1, 7]: 0.3 ± 0.01 nM
- CB1/CB2 [1]: 7
- Ki ([2]; Table 6, read-out: CB1 KI): 2.3 ± 0.32 nM
- Ki [2, 8]: 2 ± 0.3 nM
- ED50 [3, 9]: 1.3 µmol/kg
- ED50 ([3]; Table 6, read-out: R.T. ED50): 0.37 mg/kg
- ED50 [4, 10]: 2.3 µmol/kg
- ED50 ([4]; Table 6, read-out: T.F. ED50): 0.7 mg/kg
- ED50 [5, 11]: < 1 µmol/kg
- ED50 ([5]; Table 6, read-out: S.A. ED50): 0.04 mg/kg

Structure (SMILES): CCCCCCc1ccc(O)c(C2CCCCC2)c1O [O-2010, 2-Cyclohexyl-4-hexyl resorcinol]
- T.F. % effect at dose ([4]; @ 30 mg/kg): 9.0%@ 30

Structure (SMILES): COc1cc(C)cc(OC)c1C1CCCCC1 [O-2299, 2-Cyclohexyl-1,3-dimethoxy-5-methylbenzene]
- Ki ([1]; Table 6, read-out: CB2 KI): > 10000 nM
- Ki ([2]; Table 6, read-out: CB1 KI): > 10000 nM
